The record followed here is patent US20180186742A1, “PICOLINAMIDES AS FUNGICIDES” (Dow AgroSciences LLC, priority 2017, published 2018).

Common to all, as to type: in vivo
In assay [1] the test system is Phakopsora pachyrhizi. The assay can be described thus: Asian soybean rust (PHAKPA), disease control on soybean seedlings. As to conditions: High volume application at 25 ppm. As for the experimental part: Technical grades of materials were dissolved in acetone, which were then mixed with nine volumes of water containing 0.011% Tween 20. The fungicide solutions were applied onto soybean seedlings using an automated booth sprayer to run-off. All sprayed plants were allowed to air dry prior to further handling.
Soybean plants (variety Williams 82) were grown in soil-less Metro mix, with one plant per pot. Two week old seedlings were used for testing. Plants were inoculated either 3 days prior to or 1 day after fungicide treatments. Plants were incubated for 24 h in a dark dew room at 22° C. and 100% relative humidity then transferred to a growth room at 23° C. for disease to develop. Disease severity was assessed on the sprayed leaves.

Assay [2] relates to Zymoseptoria tritici. The assay can be described thus: Leaf blotch of wheat (SEPTTR), disease control on wheat seedlings. Conditions: for pest or weed control at 121.5 g/ha: low volume application at 121.5 g/H; for pest or weed control at 100 ppm: high volume application at 100 ppm. In a few lines: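 Z. tritici spores were inoculated onto wheat seedlings (Yuma, first leaf emerged) either before or after treatment. Treatment was an automated spray to run-off of acetone/Triton X-100 water solutions, or a track spray of EC formulations with 0.1% Trycol 5941. Plants were held in dew chambers at 20 °C and then a greenhouse at 20 °C. First-leaf severity (0–100%) was converted to percent control against untreated plants.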

The test system of assay [3] is Puccinia triticina. The assay can be described thus: Wheat brown rust (PUCCRT), disease control on wheat seedlings. Conditions: for pest or weed control at 121.5 g/ha: low volume application at 121.5 g/H; for pest or weed control at 100 ppm: high volume application at 100 ppm. Summed up: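 Compounds in acetone, diluted with nine volumes of water containing 110 ppm Triton X-100, sprayed to run-off on first-leaf Yuma wheat seedlings; track-spray tests used EC formulations with 0.1% Trycol 5941. Puccinia triticina spores applied before or after treatment. Overnight dark dew room at 22° C, 100% humidity, then greenhouse at 24° C.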

Where [4] appears, read: 24 h, 1 Day Protectant, read-out: PHAKPA 1DP disease control rating.
[5] abbreviates: 72 h, 3 Day Curative, read-out: PHAKPA 3DC disease control rating.
[6] abbreviates: 24 h, 1 Day Protectant, read-out: SEPTTR disease control, 1DP, LV activity.
Where [7] appears, read: 72 h, 3 Day Curative, read-out: SEPTTR disease control, 3DC, LV activity.
The mark [8] stands for this setting: 24 h, 1 Day Protectant, read-out: PUCCRT disease control, 1DP, LV activity.
Setting [9] is: 72 h, 3 Day Curative, read-out: PUCCRT disease control, 3DC, LV activity.
Setting [10] is: 24 h, 1 Day Protectant, read-out: SEPTTR disease control, 1DP, HV activity.
Where [11] appears, read: 72 h, 3 Day Curative, read-out: SEPTTR disease control, 3DC, HV activity.
Setting [12] is: 24 h, 1 Day Protectant, read-out: PUCCRT disease control, 1DP, HV activity.
Setting [13] is: 72 h, 3 Day Curative, read-out: PUCCRT disease control, 3DC, HV activity.

Read-outs that look alike come from different tables or passages of the source.

For the compound `COc1ccnc(C(=O)N[C@@H](C)C(=O)O[C@@H](C)[C@@H](c2ccc(C)cc2C)C2CCCCC2)c1OC(C)=O` [Compound 202], the pest or weed control at 25 ppm in assay [1] (setting [4]) was less than 80%; in assay [1] (setting [5]) it was less than 0%. For the same compound, the pest or weed control at 121.5 g/ha was less than 80% in assay [2] (setting [6]), less than 80% in assay [2] (setting [7]), greater than 80% in assay [3] (setting [8]) and less than 0% in assay [3] (setting [9]).

`CCC(C)[C@H](c1ccc(C)cc1C)[C@H](C)OC(=O)[C@H](C)NC(=O)c1nccc(OC)c1OC(C)=O` (some centres unmarked) [Compound 203]: the figures for the pest or weed control at 25 ppm in assay [1] (setting [4]) and in assay [1] (setting [5]) were greater than 80% and less than 0%, respectively. Moreover, the pest or weed control at 121.5 g/ha in assay [2] (setting [6]), in assay [2] (setting [7]), in assay [3] (setting [8]) and in assay [3] (setting [9]) was less than 80% each time.

`COc1ccnc(C(=O)N[C@@H](C)C(=O)O[C@@H](C)[C@@H](c2ccc(C)cc2C)C(C)C)c1OCOC(C)=O` [Compound 204]: the pest or weed control at 25 ppm in assay [1] (setting [4]) is less than 80%; in assay [1] (setting [5]), less than 0%. The pest or weed control at 121.5 g/ha in assay [2] (setting [6]) was less than 0%; in assay [2] (setting [7]), less than 80%; in assay [3] (setting [8]), greater than 80%; in assay [3] (setting [9]), less than 80%.

On to `COc1ccnc(C(=O)N[C@@H](C)C(=O)O[C@@H](C)[C@@H](c2ccc(C)cc2C)C2CCCC2)c1OCOC(C)=O` [Compound 205], for which the pest or weed control at 25 ppm in assay [1] (setting [4]) is less than 80%; in assay [1] (setting [5]) it was less than 0%. In addition, the pest or weed control at 121.5 g/ha in assay [2] (setting [6]) was less than 80%; in assay [2] (setting [7]) it was less than 80%; in assay [3] (setting [8]) it was greater than 80%; in assay [3] (setting [9]), less than 0%.

On to `COc1ccnc(C(=O)N[C@@H](C)C(=O)O[C@@H](C)[C@@H](c2ccc(C)cc2C)C2CCCCC2)c1OCOC(C)=O` [Compound 206], for which the pest or weed control at 25 ppm was less than 80% in assay [1] (setting [4]) and less than 0% in assay [1] (setting [5]). In addition, the pest or weed control at 121.5 g/ha is less than 80% in assay [2] (setting [6]), less than 80% in assay [2] (setting [7]), less than 80% in assay [3] (setting [8]) and less than 0% in assay [3] (setting [9]).

As for `CCC(C)[C@H](c1ccc(C)cc1C)[C@H](C)OC(=O)[C@H](C)NC(=O)c1nccc(OC)c1OCOC(C)=O` (some centres unmarked) [Compound 207], the results for the pest or weed control at 25 ppm in assay [1] (setting [4]) and in assay [1] (setting [5]) were greater than 80% and less than 0%, respectively. Further, the pest or weed control at 121.5 g/ha is less than 80% in assay [2] (setting [6]), greater than 80% in assay [2] (setting [7]), greater than 80% in assay [3] (setting [8]) and less than 80% in assay [3] (setting [9]).

For `COc1ccnc2c(=O)n([C@@H](C)C(=O)O[C@@H](C)[C@@H](c3ccc(C)cc3C)C(C)C)c(=O)oc12` [Compound 208], the pest or weed control at 25 ppm was less than 80% in assay [1] (setting [4]) and less than 0% in assay [1] (setting [5]). The pest or weed control at 121.5 g/ha in assay [2] (setting [6]) was less than 0%; in assay [2] (setting [7]), less than 80%; in assay [3] (setting [8]), less than 80%; in assay [3] (setting [9]) it was less than 80%.

Turning to `COc1ccnc2c(=O)n([C@@H](C)C(=O)O[C@@H](C)[C@@H](c3ccc(C)cc3C)C3CCCC3)c(=O)oc12` [Compound 209], the values for the pest or weed control at 25 ppm in assay [1] (setting [4]) and in assay [1] (setting [5]) were less than 80% and less than 0%, respectively. The pest or weed control at 121.5 g/ha is less than 80% in assay [2] (setting [6]), less than 80% in assay [2] (setting [7]), less than 0% in assay [3] (setting [8]) and less than 0% in assay [3] (setting [9]).

For the compound `COc1ccnc2c(=O)n([C@@H](C)C(=O)O[C@@H](C)[C@@H](c3ccc(C)cc3C)C3CCCCC3)c(=O)oc12` [Compound 210], the pest or weed control at 25 ppm in assay [1] (setting [4]) and in assay [1] (setting [5]) was less than 80% throughout. Besides, the pest or weed control at 121.5 g/ha in assay [2] (setting [6]) is greater than 80%; in assay [2] (setting [7]), less than 80%; in assay [3] (setting [8]), less than 80%; in assay [3] (setting [9]) it was less than 0%.

In the case of `COc1cc[n+]([O-])c(C(=O)N[C@@H](C)C(=O)O[C@@H](C)[C@@H](c2ccc(C)cc2C)C(C)C)c1O` [Compound 211], the results for the pest or weed control at 25 ppm in assay [1] (setting [4]) and in assay [1] (setting [5]) were less than 80% and less than 0%, respectively. The pest or weed control at 100 ppm was less than 80% in assay [2] (setting [10]), less than 80% in assay [2] (setting [11]), less than 80% in assay [3] (setting [12]) and less than 0% in assay [3] (setting [13]). Further, the pest or weed control at 121.5 g/ha in assay [2] (setting [6]) is less than 80%; in assay [2] (setting [7]), less than 0%; in assay [3] (setting [8]), less than 0%; in assay [3] (setting [9]), less than 0%.

Consider `COc1cc[n+]([O-])c(C(=O)N[C@@H](C)C(=O)O[C@@H](C)[C@@H](c2ccc(C)cc2C)C2CCCC2)c1O` [Compound 212], for which the pest or weed control at 25 ppm in assay [1] (setting [4]) and in assay [1] (setting [5]) was less than 80% in each case. The pest or weed control at 100 ppm in assay [2] (setting [10]) was less than 80%; in assay [2] (setting [11]), greater than 80%; in assay [3] (setting [12]), greater than 80%; in assay [3] (setting [13]), less than 80%. For the same compound, the pest or weed control at 121.5 g/ha in assay [2] (setting [6]) was less than 0%; in assay [2] (setting [7]), less than 0%; in assay [3] (setting [8]), less than 80%; in assay [3] (setting [9]), less than 0%.

As to `CCC(C)[C@H](c1ccc(C)cc1C)[C@H](C)OC(=O)[C@H](C)NC(=O)c1c(O)c(OC)cc[n+]1[O-]` (some centres unmarked) [Compound 213], the pest or weed control at 25 ppm in assay [1] (setting [4]) and in assay [1] (setting [5]) was less than 0% in each case. The pest or weed control at 121.5 g/ha was less than 80% in assay [2] (setting [6]), less than 80% in assay [2] (setting [7]), less than 80% in assay [3] (setting [8]) and less than 0% in assay [3] (setting [9]).

Take `COc1ccnc(C(=O)N[C@@H](C)C(=O)O[C@@H](C)[C@H](c2ccc(F)cc2)C(C)C)c1OC(C)=O` [Compound 214]: the pest or weed control at 25 ppm in assay [1] (setting [4]) is greater than 80%; in assay [1] (setting [5]), less than 80%. Moreover, the pest or weed control at 121.5 g/ha in assay [2] (setting [6]), in assay [2] (setting [7]), in assay [3] (setting [8]) and in assay [3] (setting [9]) was greater than 80% throughout.

With `COc1ccnc(C(=O)N[C@@H](C)C(=O)O[C@@H](C)[C@H](c2ccc(F)cc2C)C(C)C)c1OCOC(C)=O` [Compound 215], the pest or weed control at 25 ppm in assay [1] (setting [4]) and in assay [1] (setting [5]) was greater than 80% each time. The pest or weed control at 121.5 g/ha in assay [2] (setting [6]), in assay [2] (setting [7]), in assay [3] (setting [8]) and in assay [3] (setting [9]) was greater than 80% each time.

Consider `COc1cc(F)ccc1[C@@H](C(C)C)[C@H](C)OC(=O)[C@H](C)NC(=O)c1nccc(OC)c1OC(C)=O` [Compound 221], for which the pest or weed control at 25 ppm in assay [1] (setting [4]) and in assay [1] (setting [5]) was less than 80% each time. In addition, the pest or weed control at 121.5 g/ha in assay [2] (setting [6]) is less than 80%; in assay [2] (setting [7]), greater than 80%; in assay [3] (setting [8]), less than 80%; in assay [3] (setting [9]) it was less than 80%.

On to `CCC(CC)[C@H](c1ccc(F)cc1OC)[C@H](C)OC(=O)[C@H](C)NC(=O)c1nccc(OC)c1OC(C)=O` [Compound 222], for which the pest or weed control at 25 ppm in assay [1] (setting [4]) is greater than 80%; in assay [1] (setting [5]) it was less than 80%. The pest or weed control at 121.5 g/ha is greater than 80% in assay [2] (setting [6]), greater than 80% in assay [2] (setting [7]), greater than 80% in assay [3] (setting [8]) and less than 80% in assay [3] (setting [9]).

For `COc1cc(F)ccc1[C@@H](C1CCCCC1)[C@H](C)OC(=O)[C@H](C)NC(=O)c1nccc(OC)c1OC(C)=O` [Compound 223], the pest or weed control at 25 ppm in assay [1] (setting [4]) was less than 80%; in assay [1] (setting [5]), less than 0%. Also, the pest or weed control at 121.5 g/ha in assay [2] (setting [6]) was greater than 80%; in assay [2] (setting [7]) it was greater than 80%; in assay [3] (setting [8]) it was less than 80%; in assay [3] (setting [9]), less than 80%.

`COc1cc(F)ccc1[C@@H](C1CCCC1)[C@H](C)OC(=O)[C@H](C)NC(=O)c1nccc(OC)c1OC(C)=O` [Compound 224]: the pest or weed control at 25 ppm is less than 80% in assay [1] (setting [4]) and less than 0% in assay [1] (setting [5]). In addition, the pest or weed control at 121.5 g/ha in assay [2] (setting [6]) is less than 80%; in assay [2] (setting [7]), less than 0%; in assay [3] (setting [8]) it was less than 80%; in assay [3] (setting [9]) it was less than 80%.
